According to the supplement of paper PMC10307832:

Legend:
Test in all cases: relative viability (nuclei count vs DMSO), 5 days (fraction); higher = more cells survive
[1] = compound: Cc1ccc2nc(NCCN)c3ncc(C)n3c2c1 + Nc1nc2[nH]cc(CCc3ccc(C(=O)N[C@@H](CCC(=O)O)C(=O)O)cc3)c2c(=O)[nH]1 [Pemetrexed] (partner 0.2 µM)
In short: (§1)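 A single step with final 0.05% Triton X-100, 1% formaldehyde and 1 ug/ml Hoechst fixed the cells and stained nuclei 5 days after treatment. Lung cancer cell lines in 1536-well plates had been treated by pin tool the day after seeding with one drug alone or a fixed anchor-drug dose plus five library-drug doses (not always all listed) in √10 steps, and nuclei were counted on 4× images. Relative viability is the ratio of nuclei in treated wells to nuclei in vehicle wells, taken as the median of duplicate plates.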

[2] = compound: O=C(/C=C/c1ccccc1)NC(NC(=S)Nc1cccc2cccnc12)C(Cl)(Cl)Cl [Salubrinal] + N=C(N)NC(=N)NCCc1ccccc1 [Phenformin] (partner 250 µM)
In short: as §1

[3] = compound: Cc1ccc2nc(NCCN)c3ncc(C)n3c2c1 + Cc1cc(Nc2cc(N3CCN(C)CC3)nc(Sc3ccc(NC(=O)C4CC4)cc3)n2)n[nH]1 [Tozasertib] (partner 0.1 µM)
In short: as §1

[4] = compound: Cc1ccc2nc(NCCN)c3ncc(C)n3c2c1 + NC(=O)Nc1cc(-c2cccc(F)c2)sc1C(=O)N[C@H]1CCCNC1 [AZD7762] (partner 0.2 µM)
In short: as §1

Cell Line | relative viability ([1]; first compound 0.04 µM) | relative viability ([1]; first compound 0.1265 µM) | relative viability ([1]; first compound 0.4 µM) | relative viability ([1]; first compound 1.265 µM) | relative viability ([1]; first compound 4 µM) | relative viability ([2]; first compound 0.08 µM) | relative viability ([2]; first compound 0.253 µM) | relative viability ([2]; first compound 0.8 µM) | relative viability ([2]; first compound 2.53 µM) | relative viability ([2]; first compound 8 µM) | relative viability ([3]; first compound 0.04 µM) | relative viability ([3]; first compound 0.1265 µM) | relative viability ([3]; first compound 0.4 µM) | relative viability ([3]; first compound 1.265 µM) | relative viability ([3]; first compound 4 µM) | relative viability ([4]; first compound 0.04 µM) | relative viability ([4]; first compound 0.1265 µM) | relative viability ([4]; first compound 0.4 µM) | relative viability ([4]; first compound 1.265 µM) | relative viability ([4]; first compound 4 µM)
NCI-H1563 | 0.861 | 0.78 | 0.877 | 0.718 | 0.705 | 0.71 | 0.617 | 0.647 | 0.635 | 0.692 | – | – | – | – | – | – | – | – | – | –
NCI-H1623 | – | – | – | – | – | 0.522 | 0.564 | 0.61 | 0.578 | 0.551 | 0.453 | 0.486 | 0.451 | 0.355 | 0.354 | – | – | – | – | –
NCI-H1648 | 0.696 | 0.85 | 0.723 | 0.627 | 0.7 | – | – | – | – | – | 0.498 | – | 0.546 | – | 0.3 | 0.687 | 0.682 | 0.587 | 0.709 | 0.737
NCI-H1650 | 0.352 | 0.386 | 0.349 | 0.376 | 0.332 | 0.497 | 0.462 | 0.423 | 0.423 | 0.422 | 0.434 | 0.431 | 0.513 | 0.439 | 0.296 | – | – | – | – | –
NCI-H1703 | – | – | – | – | – | – | – | – | – | – | – | – | – | – | – | 0.131 | 0.114 | – | 0.111 | 0.132
NCI-H1792 | 1.33 | 0.774 | – | 0.801 | 0.618 | 0.258 | – | 0.368 | 0.239 | 0.262 | – | – | – | – | – | 0.822 | 0.665 | – | 0.768 | 0.674
NCI-H2009 | 1.02 | 0.985 | 0.966 | 0.951 | 0.926 | 0.534 | 0.492 | 0.489 | 0.454 | 0.411 | 0.754 | 0.725 | 0.72 | 0.734 | 0.541 | – | – | – | – | –
NCI-H2023 | 0.254 | 0.241 | 0.235 | 0.503 | 0.171 | 0.471 | 0.37 | 0.461 | 0.368 | 0.276 | 0.333 | 0.395 | 0.361 | 0.32 | 0.251 | – | – | – | – | –
NCI-H2228 | 0.316 | 0.292 | 0.357 | 0.361 | 0.419 | 0.319 | 0.265 | 0.441 | 0.315 | 0.247 | 0.297 | 0.266 | 0.279 | 0.224 | 0.219 | – | – | – | – | –
SK-LU-1 | 0.979 | 0.903 | 0.955 | 0.984 | 0.981 | 0.647 | 0.4 | 0.594 | 0.555 | 0.435 | 0.378 | 0.373 | 0.392 | 0.339 | 0.308 | – | – | – | – | –
SK-MES-1 | 1.04 | 0.903 | 0.9 | 1.05 | 0.92 | 0.703 | 0.64 | 0.668 | 0.672 | 0.605 | 0.898 | 0.904 | 0.921 | 0.929 | 0.678 | – | – | – | – | –
SW 1573 | 1.01 | 0.828 | 0.912 | 0.992 | 0.611 | 0.388 | 0.327 | 0.389 | 0.332 | 0.299 | 0.187 | 0.177 | 0.19 | 0.214 | 0.157 | – | – | – | – | –
